Assay results: patent US20160047819A1, “METHOD FOR DIAGNOSING VAGINAL INFECTIONS” (priority 2013, published 2016)

Tested on: vaginal proteome (human proteins in vaginal fluid)
Experiment: MS/MS proteomic analysis of vaginal fluid pools, BV-affected women before (BV) and after rifaximin/placebo treatment: human proteins
Type: in vivo
Details: for Ratio: BV/R, Alpha-1-acid glycoprotein 1 / Ratio: BV/R, Alpha-1-acid glycoprotein 2 / Ratio: BV/R, Calcium-activated chloride channel regulator 4 / Ratio: BV/R, Catalase / Ratio: BV/R, Desmocollin-2 / Ratio: BV/R, Galectin-3-binding protein / Ratio: BV/R, Hemopexin / Ratio: BV/R, Ig mu chain C region / Ratio: BV/R, Immunoglobulin J chain / Ratio: BV/R, Keratin, type I cytoskeletal 10 / Ratio: BV/R, Keratin, type II cytoskeletal 1 / Ratio: BV/R, Keratin, type II cytoskeletal 2 epidermal / Ratio: BV/R, Keratin, type II cytoskeletal 5 / Ratio: BV/R, Lymphocyte-specific protein 1 / Ratio: BV/R, Myeloblastin / Ratio: BV/R, Neutrophil gelatinase-associated lipocalin / Ratio: BV/R, Perilipin-3 / Ratio: BV/R, Periplakin / Ratio: BV/R, Protein S100-A7 / Ratio: BV/R, Protein S100-A9 / Ratio: BV/R, Small proline-rich protein 3 / Ratio: BV/R, Superoxide dismutase [Cu—Zn] / Ratio: BV/R, Vitamin D-binding protein: vaginal fluid
Protocol: Proteomic analysis was performed on 9 pools of vaginal isolates, grouped according to the status of the BV infection: • H pool (from 41 healthy women); BV pool (from 39 BV-affected women); • A-R pool (from 2 women who were in remission after rifaximin treatment-group A); • A-N pool (from 8 women who were not in remission after rifaximin treatment-group A); • B-R pool (from 5 women who were in remission after rifaximin treatment-group B); • B-N pool (from 5 women who were not in remission after rifaximin treatment-group B); • C-R pool (from 4 women who were in remission after rifaximin treatment-group C); • C-N (from 5 women who were not in remission after rifaximin treatment-group C); • D-N (from 10 women who were not in remission after placebo treatment-group D). Scheme of the vaginal fluids collected for testing the diagnostic method is represented in FIG. 1.
In these figures are reported the peptides in the fractionated pools of healthy women, women affected by BV and peptides of women treated with rifaximin. The treatment with rifaximin was at dosage of 100 mg/day for 5 days; (remission, A-R; no remission, A-N), 25 mg/5 days (remission, B-R; no remission, B-N), 100 mg/2 days (remission, C-R; no remission, C-N), and placebo for 5 days (D-N). Two types of comparisons were carried out: (i) between fractionated pools of proteins from vaginal fluid of healthy women (HF) versus fractionated pool of proteins from vaginal fluid of women affected by bacterial vaginosis (BVF); (ii) between whole pools of proteins from vaginal fluid of women affected by BV treated by administering different doses of rifaximin or placebo before (BV) and after (A-R, A-N, B-R, B-N, C-R, C-N, D-N) treatment. Fractioned pools of proteins are obtained, e.g., by separating the proteins by separation on membrane filtration with different membrane porosity, prior to MS/MS analysis.
Nine volumes of acetone: HCl (10:1) were added to the supernatant of the vaginal rinsing and proteins were precipitated by centrifuging at 12000 g for 10 min. The protein pellet was dissolved in 1 mL of 70% ethanol and the sample was spun at 12000 g for 10 min. One mL of acetone was added and the proteins were further precipitated by centrifugation at 12000 g for 5 min. After removing supernatant, pellet was dried by SpeedVac concentrator (Thermo Savant ISS110, Thermo Fisher Scientific, Waltham, Mass.) and then stored at −20° C.
Protein extract was quantified using the 2-D Quant Kit (GE Healthcare, Uppsala, Sweden) according to the manufacturer's instructions.
Patients who were diagnosed for BV at the study visit V1 were included in a multicentre, double-blind, randomised, placebo-controlled study (EudraCT: 2009-011826-32), that was performed to compare the efficacy of different doses of rifaximin vaginal tablets versus placebo for the treatment of BV. The patients underwent a randomisation visit and were distributed into 4 treatment groups: group A received 100 mg rifaximin vaginal tablet once daily for 5 days (n=10), group B received 25 mg rifaximin vaginal tablet once daily for 5 days (n=10), group C received 100 mg rifaximin vaginal tablet once daily for the first 2 days and placebo vaginal tablet for the remaining 3 days (n=9), group D received placebo vaginal tablet once daily for 5 days (n=10). Study medication was administered intra-vaginally at bedtime. After 7 to 10 days from the end of the therapy a follow-up visit (V3) was performed. Remission was evaluated at V3 according to Amsel's criteria (<3) and Gram stain Nugent score (≦3) (Table 1).
Standardized vaginal rinsings with 2 mL of saline were collected for analysis at V1 and V3 by flushing and re-aspirating the fluid through a 22 Gauge needle in the left, central and right upper vaginal vaults. The vaginal rinsings were subsequently stored at −80° C. until use.
MS/MS analysis was carried out for H and BV pools and for the whole BV, A-R, A-N, B-R, B-N, C-R, C-N and D-N pools containing 50 μg of protein each. […]

[1] = A-R pool (100 mg × 5 days, in remission) vs BV pool before treatment
[2] = B-R pool (25 mg × 5 days, in remission) vs BV pool before treatment
[3] = B-R pool (25 mg × 5 days, remission) vs BV pool
[4] = B-R pool vs BV pool, differentially expressed only in B-R
[5] = C-R pool (100 mg × 2 days, in remission) vs BV pool before treatment

## CO[C@H]1/C=C/O[C@@]2(C)Oc3c(C)c(O)c4c(O)c(c5c(nc6cc(C)ccn65)c4c3C2=O)NC(=O)/C(C)=C\C=C\[C@H](C)[C@H](O)[C@@H](C)[C@@H](O)[C@@H](C)[C@H](OC(C)=O)[C@@H]1C [rifaximin]
[1]
  Ratio: BV/R, Alpha-1-acid glycoprotein 1: 2.3
  Ratio: BV/R, Alpha-1-acid glycoprotein 2: 1.5
  Ratio: BV/R, Calcium-activated chloride channel regulator 4: 2.9
  Ratio: BV/R, Catalase: 0.0
  Ratio: BV/R, Desmocollin-2: −1.5
  Ratio: BV/R, Galectin-3-binding protein: 3.6
  Ratio: BV/R, Hemopexin: 1.9
  Ratio: BV/R, Ig mu chain C region: 1.8
  Ratio: BV/R, Immunoglobulin J chain: −1.5
  Ratio: BV/R, Keratin, type I cytoskeletal 10: −2.8
  Ratio: BV/R, Keratin, type II cytoskeletal 1: −3.9
  Ratio: BV/R, Keratin, type II cytoskeletal 2 epidermal: −4.3
  Ratio: BV/R, Keratin, type II cytoskeletal 5: −16.3
  Ratio: BV/R, Lymphocyte-specific protein 1: −2.8
  Ratio: BV/R, Myeloblastin: 0.0
  Ratio: BV/R, Neutrophil gelatinase-associated lipocalin: 0.0
  Ratio: BV/R, Perilipin-3: −1.7
  Ratio: BV/R, Periplakin: −3.6
  Ratio: BV/R, Protein S100-A7: 19.2
  Ratio: BV/R, Protein S100-A9: 4.2
  Ratio: BV/R, Small proline-rich protein 3: −6.6
  Ratio: BV/R, Superoxide dismutase [Cu—Zn]: 1.8
  Ratio: BV/R, Vitamin D-binding protein: 1.7
B-N pool vs BV pool
  number of differentially expressed human proteins: 155
[2]
  Ratio: BV/R, Alpha-1-acid glycoprotein 1: 7.8
  Ratio: BV/R, Alpha-1-acid glycoprotein 2: 19.5
  Ratio: BV/R, Calcium-activated chloride channel regulator 4: 0.0
  Ratio: BV/R, Catalase: 4.0
  Ratio: BV/R, Desmocollin-2: −2.0
  Ratio: BV/R, Galectin-3-binding protein: 2.7
  Ratio: BV/R, Hemopexin: 9.0
  Ratio: BV/R, Ig mu chain C region: 8.1
  Ratio: BV/R, Immunoglobulin J chain: −4.1
  Ratio: BV/R, Keratin, type I cytoskeletal 10: −3.5
  Ratio: BV/R, Keratin, type II cytoskeletal 1: −6.2
  Ratio: BV/R, Keratin, type II cytoskeletal 2 epidermal: −7.1
  Ratio: BV/R, Keratin, type II cytoskeletal 5: −12.7
  Ratio: BV/R, Lymphocyte-specific protein 1: −3.2
  Ratio: BV/R, Myeloblastin: 3.1
  Ratio: BV/R, Neutrophil gelatinase-associated lipocalin: −1.5
  Ratio: BV/R, Perilipin-3: −2.9
  Ratio: BV/R, Periplakin: −3.4
  Ratio: BV/R, Protein S100-A7: 5.7
  Ratio: BV/R, Protein S100-A9: 2.6
  Ratio: BV/R, Small proline-rich protein 3: −6.6
  Ratio: BV/R, Superoxide dismutase [Cu—Zn]: 1.5
  Ratio: BV/R, Vitamin D-binding protein: 17.8
[3]
  expression change of Kininogen-1: −88.6 ratio
  expression change of Prostate stem cell antigen: 63.8 ratio
  expression change of Stanniocalcin-1: 113.1 ratio
B-R pool vs BV pool
  number of differentially expressed human proteins: 214
[4]
  expression change of Ig heavy chain V-III region BUT: −1.6 ratio
  expression change of Ig heavy chain V-III region VH26: −1.5 ratio
  expression change of Kallikrein-13: 1.5 ratio
  expression change of Neutrophil gelatinase-associated lipocalin: 1.5 ratio
  expression change of Zinc-alpha-2-glycoprotein: −9.4 ratio
[5]
  Ratio: BV/R, Alpha-1-acid glycoprotein 1: 0.0
  Ratio: BV/R, Alpha-1-acid glycoprotein 2: −1.9
  Ratio: BV/R, Calcium-activated chloride channel regulator 4: 1.8
  Ratio: BV/R, Catalase: 2.3
  Ratio: BV/R, Desmocollin-2: 0.0
  Ratio: BV/R, Galectin-3-binding protein: 0.0
  Ratio: BV/R, Hemopexin: 1.7
  Ratio: BV/R, Ig mu chain C region: 0.0
  Ratio: BV/R, Immunoglobulin J chain: −2.2
  Ratio: BV/R, Keratin, type I cytoskeletal 10: 0.0
  Ratio: BV/R, Keratin, type II cytoskeletal 1: −2.3
  Ratio: BV/R, Keratin, type II cytoskeletal 2 epidermal: 0.0
  Ratio: BV/R, Keratin, type II cytoskeletal 5: −2.5
  Ratio: BV/R, Lymphocyte-specific protein 1: 0.0
  Ratio: BV/R, Myeloblastin: 4.0
  Ratio: BV/R, Neutrophil gelatinase-associated lipocalin: 0.0
  Ratio: BV/R, Perilipin-3: −2.3
  Ratio: BV/R, Periplakin: −2.0
  Ratio: BV/R, Protein S100-A7: 2.5
  Ratio: BV/R, Protein S100-A9: 0.0
  Ratio: BV/R, Small proline-rich protein 3: −4.4
  Ratio: BV/R, Superoxide dismutase [Cu—Zn]: 0.0
  Ratio: BV/R, Vitamin D-binding protein: 0.0
Pool A-N after treatment
  Ratio X/H Sciellin (O95171): 0.0
  Ratio X/H Semenogelin-2 (Q02383): 525.8
  Ratio X/H Serine protease 27 (Q9BQR3): 0.0
  Ratio X/H Serine/threonine-protein kinase ULK1 (O75385): −5.1
  Ratio X/H Serotransferrin (P02787): 1.6
  Ratio X/H Serpin B3 (P29508): 0.0
  Ratio X/H Serpin B4 (P48594): 0.0
  Ratio X/H Serpin B5 (P36952): −3.3
  Ratio X/H Serpin B6 (P35237): −2.1
  Ratio X/H Serpin B9 (P50453): −2.6
  Ratio X/H Serpin B12 (Q96P63): −1.5
  Ratio X/H Serpin B13 (Q9UIV8): 0.0
  Ratio X/H Serum albumin (P02768): −1.5
  Ratio X/H Serum paraoxonase/arylesterase 1 (P27169): 1.5
  Ratio X/H Small proline-rich protein 3 (Q9UBC9): 3.4
  Ratio X/H Stanniocalcin-1 (P52823): 1.9
  Ratio X/H Sulfhydryl oxidase 1 (O00391): −1.6
  Ratio X/H Superoxide dismutase [Cu—Zn] (P00441): 0.0
  Ratio X/H Suprabasin (Q6UWP8): 13.5
  Ratio X/H Syntenin-1 (O00560): 4.4
  Ratio X/H Talin-1 (Q9Y490): 0.0
  Ratio X/H Tctex1 domain-containing protein 2 (Q8WW35): −1.6
  Ratio X/H Teneurin-3 (Q9P273): 9.7
  Ratio X/H Thioredoxin (P10599): 0.0
  Ratio X/H Transaldolase (P37837): −1.8
  Ratio X/H Transmembrane protease serine 11D (O60235): −1.8
  Ratio X/H Transthyretin (P02766): 0.0
  Ratio X/H Tumor protein D54 (O43399): 0.0
  Ratio X/H UTP--glucose-1-phosphate uridylyltransferase (Q16851): 0.0
  Ratio X/H UV excision repair protein RAD23 homolog B (P54727): −2.9
  Ratio X/H Uronyl 2-sulfotransferase (Q9Y2C2): −786.0
  Ratio X/H Versican core protein (P13611): 0.0
  Ratio X/H Vinculin (P18206): 0.0
  Ratio X/H Vitamin D-binding protein (P02774): 0.0
  Ratio X/H Werner syndrome ATP-dependent helicase (Q14191): 302.6
  Ratio X/H Zinc finger protein 185 (O15231): 2.2
  Ratio X/H Zinc finger protein 335 (Q9H4Z2): 0.0
  Ratio X/H Zinc-alpha-2-glycoprotein (P25311): 0.0
  Ratio X/H Zyxin (Q15942): −1.7
Pool A-R after treatment
  Ratio X/H Sciellin (O95171): 0.0
  Ratio X/H Semenogelin-2 (Q02383): 1.9
  Ratio X/H Serine protease 27 (Q9BQR3): −1.7
  Ratio X/H Serine/threonine-protein kinase ULK1 (O75385): −2.2
  Ratio X/H Serotransferrin (P02787): −1.5
  Ratio X/H Serpin B3 (P29508): 3.2
  Ratio X/H Serpin B4 (P48594): 0.0
  Ratio X/H Serpin B5 (P36952): −7.9
  Ratio X/H Serpin B6 (P35237): 0.0
  Ratio X/H Serpin B9 (P50453): −4.1
  Ratio X/H Serpin B12 (Q96P63): −2.7
  Ratio X/H Serpin B13 (Q9UIV8): 0.0
  Ratio X/H Serum albumin (P02768): −2.3
  Ratio X/H Serum paraoxonase/arylesterase 1 (P27169): 0.0
  Ratio X/H Small proline-rich protein 3 (Q9UBC9): 6.6
  Ratio X/H Stanniocalcin-1 (P52823): 3.4
  Ratio X/H Sulfhydryl oxidase 1 (O00391): 0.0
  Ratio X/H Superoxide dismutase [Cu—Zn] (P00441): −1.8
  Ratio X/H Suprabasin (Q6UWP8): 17.9
  Ratio X/H Syntenin-1 (O00560): 1.9
  Ratio X/H Talin-1 (Q9Y490): −1.6
  Ratio X/H Tctex1 domain-containing protein 2 (Q8WW35): 1.8
  Ratio X/H Teneurin-3 (Q9P273): 33.3
  Ratio X/H Thioredoxin (P10599): 2.5
  Ratio X/H Transaldolase (P37837): −1.9
  Ratio X/H Transmembrane protease serine 11D (O60235): 0.0
  Ratio X/H Transthyretin (P02766): 0.0
  Ratio X/H Tumor protein D54 (O43399): 2.2
  Ratio X/H UTP--glucose-1-phosphate uridylyltransferase (Q16851): 0.0
  Ratio X/H UV excision repair protein RAD23 homolog B (P54727): −2.8
  Ratio X/H Uronyl 2-sulfotransferase (Q9Y2C2): 2.0
  Ratio X/H Versican core protein (P13611): 0.0
  Ratio X/H Vinculin (P18206): 0.0
  Ratio X/H Vitamin D-binding protein (P02774): −1.7
  Ratio X/H Werner syndrome ATP-dependent helicase (Q14191): 331.1
  Ratio X/H Zinc finger protein 185 (O15231): 5.2
  Ratio X/H Zinc finger protein 335 (Q9H4Z2): 0.0
  Ratio X/H Zinc-alpha-2-glycoprotein (P25311): 0.0
